# Like-named read-outs stand apart in the source and are kept apart here.
# Experiments:
# [1] = biological target: CDK7/cyclinH/MAT1 trimeric complex (Homo sapiens, UniProt P50613); test: In vitro CDK7 assay, potency of irreversible covalent inhibitors (kinact/KI), coupled PK/LDH ADP readout at 340 nm; conditions: for Ki: CDK7 (20 nM enz.) (KI, μM); for Ki / CDK7 (20 nM enz.) (kinact, s^−1) / CDK7 (20 nM enz.) (kinact/KI, M^−1*s^−1): 20 nM enzyme; for kinact: read-out: CDK7 (20 nM enz.) (kinact, s^−1), 20 nM enzyme
# [2] = tested on: RNA Polymerase II Serine 5 phosphorylation in A549 cells overexpressing CDK7-mutant (C312S); test: Imaging-based cellular RNA PolII Ser5 phosphorylation assay in A549 cells overexpressing CDK7-mutant (C312S); format: cell-based, human; conditions: RNA PolII Ser5 phosphorylation, averaged over all measurements; for IC50: Homo sapiens, A549, A549 cells overexpressing CDK7-mutant (C312S), read-out: CDK7_A549 mutant hCDK7(pIC50) (converted); for CDK7_A549 mutant hCDK7(pIC50): A549 cells overexpressing CDK7-mutant (C312S)
# How it was run: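 Readout was automated imaging of anti-phospho-Ser5 Rpb1 CTD immunofluorescence, with IC50 fitted to % control versus concentration. Cells were A549 stably overexpressing non-covalently targetable CDK7 C312S alongside wild-type, exposed to compound 3 h at 37 °C. DMSO and 10 μM reference compound served as controls.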
# [3] = tested on: RNA Polymerase II Serine 5 phosphorylation (Rpb1 CTD, downstream substrate of CDK7) in A549 cells; test: Imaging-based cellular RNA PolII Ser5 phosphorylation assay in A549 cells; format: cell-based, human; conditions: wild-type CDK7, RNA PolII Ser5 phosphorylation, averaged over all measurements; for IC50: Homo sapiens, A549, A549 cells, read-out: CDK7_A549 Wild-type CDK7 (pIC50) (converted); for CDK7_A549 Wild-type CDK7 (pIC50): A549 cells
# How it was run: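 IC50 derived by fitting % control (DMSO high, 10 μM reference low) against concentration, with Hill slope. Readout: high-content imaging of phospho-Ser5 Rpb1 CTD antibody staining in fixed, permeabilized A549 cells exposed to compound 3 h after 20 h culture in 1% FBS DMEM.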
# [4] = read-out: CDK7 (20 nM enz.) (kinact/KI, M^−1*s^−1), 20 nM enzyme
# [5] = read-out: CDK7 (20 nM enz.) (kobs/[I], M^−1*s^−1), 20 nM enzyme
# CDK7/cyclinH/MAT1 trimeric complex, sequence (P50613 whole entry): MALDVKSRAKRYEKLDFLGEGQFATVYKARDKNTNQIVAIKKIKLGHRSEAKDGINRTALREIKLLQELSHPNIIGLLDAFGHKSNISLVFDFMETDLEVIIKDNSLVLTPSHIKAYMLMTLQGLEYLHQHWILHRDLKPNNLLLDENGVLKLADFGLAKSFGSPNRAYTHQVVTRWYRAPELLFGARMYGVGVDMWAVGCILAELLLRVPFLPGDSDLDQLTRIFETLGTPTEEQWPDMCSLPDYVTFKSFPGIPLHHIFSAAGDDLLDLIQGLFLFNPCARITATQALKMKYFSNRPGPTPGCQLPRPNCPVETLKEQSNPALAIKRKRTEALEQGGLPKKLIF
# CDK7/cyclinH/MAT1 trimeric complex, sequence (P51946 whole entry partner): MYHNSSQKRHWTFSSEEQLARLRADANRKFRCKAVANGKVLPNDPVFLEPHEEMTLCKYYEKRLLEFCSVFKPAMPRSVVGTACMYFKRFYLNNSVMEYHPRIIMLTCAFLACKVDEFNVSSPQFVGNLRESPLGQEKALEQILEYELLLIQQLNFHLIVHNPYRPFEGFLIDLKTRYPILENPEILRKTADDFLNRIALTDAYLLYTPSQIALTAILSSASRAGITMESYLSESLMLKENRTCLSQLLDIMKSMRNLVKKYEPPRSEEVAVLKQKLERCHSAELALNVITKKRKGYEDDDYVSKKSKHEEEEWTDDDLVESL
# CDK7/cyclinH/MAT1 trimeric complex, sequence (P51948 whole entry partner): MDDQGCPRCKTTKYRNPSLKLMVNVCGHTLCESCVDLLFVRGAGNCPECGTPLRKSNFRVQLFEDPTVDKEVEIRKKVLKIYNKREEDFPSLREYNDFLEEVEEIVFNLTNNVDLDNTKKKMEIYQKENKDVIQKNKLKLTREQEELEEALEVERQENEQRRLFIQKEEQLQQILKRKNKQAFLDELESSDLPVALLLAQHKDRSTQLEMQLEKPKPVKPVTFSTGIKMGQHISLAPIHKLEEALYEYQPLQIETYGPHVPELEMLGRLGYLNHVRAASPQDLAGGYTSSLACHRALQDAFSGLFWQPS
SMILES,Ki [1],kinact [1],"kinact/KI [1, 4]",IC50 [2],IC50 [3],"CDK7 (20 nM enz.) (kinact, s^−1) [1]","CDK7 (20 nM enz.) (kinact/KI, M^−1*s^−1) [1]",CDK7_A549 mutant hCDK7(pIC50) [2],CDK7_A549 Wild-type CDK7 (pIC50) [3],"kinact/KI [1, 5]"
CC#CC(=O)N1CCC(N2CC(c3cc(C)c4c(c3)Nc3nccc(C5CCOCC5)c3CO4)C2)C1 (stereo not shown) [Compound 274],0.0714 µM,3.45e-05 s⁻¹,483 M⁻¹ s⁻¹,> 10000 nM,174 nM,,,,,
"C=CC(=O)N1CC[C@@H](N2CCC(c3cc4c(c(C)n3)OCc3c(N5CCOCC5)ccnc3N4)CC2)C1 (single isomer, unassigned) [Compound 363]",0.0272 µM,,,,,5.097e-05 s⁻¹,1874.15 M⁻¹ s⁻¹,<5,7.52,
"C=CC(=O)N1CC(N2CC(c3cc(C#N)c4c(c3)Nc3nccc(C5CCOCC5)c3[C@H](C)O4)C2)C1 (single isomer, unassigned) [Compound 291]",,,,> 10000 nM,1230 nM,,,,,26.5 M⁻¹ s⁻¹
"CC#CC(=O)N1CC(N2CCC(c3cc4c(c(C)n3)O[C@H](C)c3c(N5CCOCC5)ccnc3N4)CC2)C1 (single isomer, unassigned) [Compound 370]",0.112 µM,2.32e-05 s⁻¹,,> 10000 nM,,,206.483 M⁻¹ s⁻¹,,7.19,
C=CC(=O)N1CC(N2CCC(c3cc(C#N)c4c(c3)Nc3nccc(N5CCOCC5)c3C(C)O4)CC2)C1 (stereo not shown) [Compound 352],0.055 µM,5.53e-05 s⁻¹,1010 M⁻¹ s⁻¹,,,,,5.51,7.52,
"CC#CC(=O)N1CCC(N2CC(c3cc4c(c(C5CC5)n3)O[C@@H](C)c3c(N5CCOCC5)ccnc3N4)C2)CC1 (single isomer, unassigned) [Compound 374]",1.36 µM,3.18e-05 s⁻¹,23.3 M⁻¹ s⁻¹,> 10000 nM,457 nM,,,,,
C=CC(=O)N1CCC(N2CC(c3cc4c(c(C(F)(F)F)n3)OCc3c(N5CCOCC5)ccnc3N4)C2)CC1 [Compound 453],0.0717 µM,,,,,3.153e-05 s⁻¹,439.69 M⁻¹ s⁻¹,5.54,7.13,
CC#CC(=O)N1CCC(n2cc(-c3cc4c(c(C)n3)OCc3c(N5CCOCC5)ccnc3N4)cn2)CC1 [Compound 399],0.0839 µM,6.61e-06 s⁻¹,78.8 M⁻¹ s⁻¹,> 10000 nM,447 nM,,,,,
"C=CC(=O)N1CC(N2CC(c3cc(C#N)c4c(c3)Nc3nccc(C5CCOCC5)c3[C@@H](C)O4)C2)C1 (single isomer, unassigned) [Compound 292]",,,,8320 nM,56.2 nM,,,,,802 M⁻¹ s⁻¹
"CC#CC(=O)N1CC(n2cc(-c3cc4c(c(C)n3)O[C@@H](C)c3c(N5CCOCC5)ccnc3N4)cn2)C1 (single isomer, unassigned) [Compound 437]",0.0822 µM,2.31e-05 s⁻¹,282 M⁻¹ s⁻¹,> 10000 nM,170 nM,,,,,
C#Cc1cc(C2CCN(C3CN(C(=O)C=C)C3)CC2)cc2c1OC(C)c1c(N3CCOCC3)ccnc1N2 (stereo not shown) [Compound 181],,,,> 10000 nM,~20.9 nM,,,,,864 M⁻¹ s⁻¹
"C=CC(=O)N1CC[C@H](N2CC(c3cc4c(c(C(F)(F)F)n3)OCc3c(-c5cnn(C)c5)ccnc3N4)C2)C1 (single isomer, unassigned) [Compound 497]",0.0437 µM,5.55e-05 s⁻¹,1270 M⁻¹ s⁻¹,> 10000 nM,138 nM,,,,,
C=CC(=O)N1CC(N2CC(c3ccc4c(c3)Nc3nccc(N5CCOCC5)c3CO4)C2)C1 [Compound 88],,,,> 10000 nM,162 nM,,,,,1050 M⁻¹ s⁻¹
"C=CC(=O)N1CCC(N2CC(c3cc(F)c4c(c3)Nc3nccc(C5CCOCC5)c3[C@@H](C)O4)C2)CC1 (single isomer, unassigned) [Compound 153]",0.0288 µM,3.67e-05 s⁻¹,1280 M⁻¹ s⁻¹,5750 nM,18.6 nM,,,,,
"C=CC(=O)N1CC[C@H](N2CC(c3cc4c(c(C)n3)O[C@H](C)c3c(C5CCOCC5)ccnc3N4)C2)C1 (single isomer, unassigned) [Compound 422]",0.0415 µM,4.6e-05 s⁻¹,1110 M⁻¹ s⁻¹,> 10000 nM,115 nM,,,,,
C=CC(=O)N1CC(N2CC(c3cc4c(c(C(F)(F)F)c3)OCc3c(N5CCOCC5)ccnc3N4)C2)C1 [Compound 267],,,,~7240 nM,23.4 nM,,,,,977 M⁻¹ s⁻¹
